# In patent US20190216751A1, “Compositions and Methods for the Treatment and Prevention of Cancer” (California State University Northridge, priority 2017, published 2019):
# What was measured:
# BT549 cells = test: Cell proliferation assay (CellTiter 96 AQueous One, MTS); assay type: cell-based, human; conditions: TubA 1 μM pretreatment, GC7 0.1 nM to 1 mM
# Excerpt: (§1) The next research questions revolved around asking how TGFβ is regulating eIF5A and what other proteins might be involved to completely block TGFβ-induced EMT. This led to histone deacetylase enzyme 6 (HDAC6). HDAC6 has been previously reported to be responsible for the deacetylation of eIF5A in the nucleus in order to make it readily available for hypusination and later transport out in the cytoplasm for functioning as a translation factor. To determine if it were possible to further increase the efficacy or potency of GC7, the inventors co-treated with Tubastatin A (an HDAC6 inhibitor) in 4T1 and 67NR cells as well as MDA-MB-468 cells which initially were not very sensitive to GC7. Triple negative human breast cancer cell line, BT547, was also used to see if another cell line representative of this breast cancer subtype was sensitive towards DHPS and HDAC6 inhibition. (FIGS. 5A and 5B). […] MDA-MB-468 and BT549 cells remained to be insensitive to TubA with or without GC7 pretreatment (FIG. 5A). […]
# (§2) The CellTiter 96® AQueous One Solution (Promega) was used to perform cell proliferation experiments. […] Absorbance readings were measured at 490 nm wavelength at 1.5, 2 and 3 hours (absorbance is directly proportional to the number of living cells).
# MDA-MB-468 cells = test: as above; assay type: cell-based, human; conditions: TubA 1 μM pretreatment, GC7 0.1 nM to 1 mM
# Excerpt: as §1, §2
# [1] = test system: 4T1, 67NR, MCF10AT1k, MCF10CA1h and MCF10CA1a; test: Cell viability at 100 μM GC7, phase-contrast imaging across cell lines; assay type: cell-based, mouse, human; conditions: 100 μM GC7, 48 hours
# Method: There are currently two drugs available that can target the activation of eIF5A. Its role of hypusination/activation is spermidine dependent and is carried out in two subsequent steps by the enzymes deoxyhypusine synthase (DHPS) catalyzing the first step and deoxyhypusine hydroxylase (DOHH) catalyzing the second step. The efficacy and potency of the two drugs in the selected cell lines; GC7 (N1-Guanyl-1,7-diaminoheptane)—a selective inhibitor of DHPS, and CPX (Ciclopirox olomine)—which chelates iron that is important for the activity of DOHH (FIG. 2A) are shown. The concentration that determines a 50% decrease in cell viability is noted by the IC50 values on each graph for each drug. These cells were imaged when treated with the second highest concentration of GC7 at 100 μM to show a decrease in cell viability after 48 hours of treatment (FIG. 2B). […] From this point forward, all experiments performed used only GC7 as the selected drug to target hypusinated eIF5A.
# The inventors sought to determine if the decrease in cell viability is due to the inhibition of post translational modification of eIF5A. To test this, all cell lines were treated with GC7 at 100 μM for 48 hours—which were the time point and concentration at which a decrease in cell viability was seen (FIG. 2B). […]
# [2] = test system: E-cadherin in 67NR cell line; test: Western blot E-cadherin after GC7; assay type: cell-based, mouse; conditions: increased GC7 concentration, 48 hours; only in 67NR
# Method: The inventors sought to determine if the decrease in cell viability is due to the inhibition of post translational modification of eIF5A. To test this, all cell lines were treated with GC7 at 100 μM for 48 hours—which were the time point and concentration at which a decrease in cell viability was seen (FIG. 2B). The inventors then collected, performed a western blot and immunoblotted for hypusine, total eIF5A and β-actin as a loading control (FIG. 3A). […] To test if this effect is dose-dependent, 4T1, 67NR and MCF10CA1a cells were treated with various concentrations of GC7 ranging from 0.1 μM to 100 μM. Protein lysates were then collected after 48 hours of treatment and performed a western blot. […] To validate this in breast cancer cells, the inventors immunoblotted for PEAK1 as well as E-cadherin, hypusine, total eIF5A and β-actin as a loading control (FIG. 3B). […] The inventors next looked at cell viability at lower concentrations of GC7, such as 1 μM and 10 μM, where a decrease in hypusinated eIF5A is still achieved but the decrease in cell viability is not as great in lower concentrations that do still target hypusinated eIF5A (FIG. 3C).
# Cell lines were plated in a 6 well plate at 1e5 cells/mL and left to attach overnight. […] Protein concentrations were determined using Bradford Assay. […] Band intensity graphs were quantified using Fiji software after image thresholding.
structure (smiles),measurement,setting,value
"N=C(N)NCCCCCCCN.O=S(=O)(O)O [GC7, N1-Guanyl-1,7-diaminoheptane]",change of potency of GC7 by TubA pretreatment (cell viability),BT549 cells,this effect was not seen in the three other cell lines
same,change of potency of GC7 by TubA pretreatment (cell viability),MDA-MB-468 cells,this effect was not seen in the three other cell lines
same,decrease in cell viability,[1],largest decrease in cell viability
same,E-cadherin protein expression,[2],decrease in E-cadherin
